Results on 14 molecules are retold here after patent publication US11414429B2, “Compound or pharmaceutically acceptable salt thereof” (RIKEN, priority 2016, dated 2022).

For orientation: IC50 means the midpoint of a concentration-inhibition curve.

Read-outs that look alike come from different tables or passages of the source. Where only a bound is given, the exact number is not on record here.

The subject of test [1] is human colorectal cancer cell line, COLO-320DM. Kind of test: Cell proliferation inhibitory activity test (Celltiter-Glo Luminescent Cell Viability Assay). The note with it: COLO-320DM cells, 96 hours. Format: cell-based. The method, then: (Test Example 2) Cell Proliferation Inhibitory Activity Test
The cell proliferation inhibitory activity of the compound obtained in each of Examples against human colorectal cancer cell line, COLO-320DM was evaluated by Celltiter-Glo Luminescent Cell Viability Assay (Promega Corporation, G7573). The COLO-320 DM cells were cultured in a RPMI-1640 medium (Wako Pure Chemical Industries, Ltd., 189-02025) containing 10% fetal bovine serum and 2 mM of glutamine. The cultured cells were washed with PBS and then detached with trypsin/EDTA to prepare a cell solution containing 3×10^4 cells/mL.
Next, the cell solution was seeded in a 96 well microplate (Thermo/Nunc, 136101) in an amount of 70 μL/well and was cultured overnight under conditions at 37° C. with 5% CO2. On the next day, 10 μL/well of a solution in which the test target compound (DMSO solution) was diluted with the cell culture medium (a final DMSO concentration of 1%) was added and the reaction was allowed to proceed under conditions at 37° C. with 5% CO2 for 96 hours (a 1% DMSO solution was used as a control). Subsequently, 80 μL/well of Celltiter-Glo Luminescent Cell Viability Assay reagent (Promega Corporation, G7573) was added, followed by agitation for 2 minutes with a shaker under shielding with aluminum foil. Thereafter, the resultant solution was allowed to stand for reaction at room temperature for 10 minutes.
After that, the luminescent signal was measured with a luminometer (Biotech, Synergy). The cell proliferation inhibitory activity was evaluated by obtaining a percentage of a cell proliferation volume of each compound-added group with respect to a cell proliferation volume (100%) of a control group in which no test target component solution was added, and calculating a value of compound concentration (GI50) required to reduce the remaining cell volume to 50% of the remaining cell volume of the control. […] The results are shown in Tables 120 to 123 together with the results of the tankyrase inhibition activity test.
A general note: Cellular ATP, detected with luciferase, serves as a proxy for viable cell number.

For a further test, the target named is T1, tankyrase 2 (TNKS 2) (Homo sapiens, UniProt Q9H2K2).
T1 construct: 613-1, 116aa; made in house; host or cells: cell-free protein synthesis system
T1 sequence (Q9H2K2 613-1166): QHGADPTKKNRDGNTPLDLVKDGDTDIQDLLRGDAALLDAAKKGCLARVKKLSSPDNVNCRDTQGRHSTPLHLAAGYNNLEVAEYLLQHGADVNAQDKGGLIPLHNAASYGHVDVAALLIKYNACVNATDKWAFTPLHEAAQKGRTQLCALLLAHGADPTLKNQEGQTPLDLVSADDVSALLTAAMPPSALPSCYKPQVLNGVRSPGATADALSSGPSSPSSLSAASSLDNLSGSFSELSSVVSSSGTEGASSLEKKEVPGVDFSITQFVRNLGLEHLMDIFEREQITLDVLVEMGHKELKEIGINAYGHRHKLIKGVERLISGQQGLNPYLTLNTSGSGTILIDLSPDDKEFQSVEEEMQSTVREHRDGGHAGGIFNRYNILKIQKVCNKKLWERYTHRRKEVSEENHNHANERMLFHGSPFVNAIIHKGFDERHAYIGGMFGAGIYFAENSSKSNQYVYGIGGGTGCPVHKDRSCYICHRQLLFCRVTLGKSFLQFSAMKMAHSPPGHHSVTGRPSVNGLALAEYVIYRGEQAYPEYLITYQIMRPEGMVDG
Kind of test: Tankyrase inhibitory activity test (ELISA, self-polyADP ribosylation), tankyrase 2. Type of test: biochemical. The note with it: self-polyADP ribosylation. The method, then: (§1) (Test Example 1) Tankyrase Inhibitory Activity Test
(§2) For each of the compounds obtained in Examples (the test target compounds), the tankyrase inhibitory activity (an inhibitory activity against tankyrase 1 (TNKS 1) and an inhibitory activity against tankyrase 2 (TNKS 2)) was evaluated by measuring the enzymatic activity of tankyrase 1 and the enzymatic activity of tankyrase 2 by the ELISA technique using self-polyADP ribosylation as an index. First, Flag-tag fusion tankyrase 1 (1,024-1,327aa, SAM+PARP) and tankyrase 2 (613-1, 116aa, ANK5+SAM+PARP) were each synthesized by a cell-free protein synthesis system and diluted with a Tris buffer (50 mM Tris-HCl (pH 8.0), 150 mM NaCl, 10% glycerol). Then, 50 μL of the diluted tankyrase 1 or tankyrase 2 was added to a plate on which the anti-FLAGM 2 monoclonal antibody was immobilized (Anti-FLAG high sensitivity M2 coated plate) (SIGMA Corporation), and was allowed to stand at 4° C. overnight. Thereafter, the plate was washed four times with a PBS buffer containing 0.1% Triton X-100 (PBST buffer).
(§3) Subsequently, the test target compound diluted with an assay buffer (50 mM Tris-HCl (pH 8.0), 4 mM MgCl2, 0.2 mM DTT) (using DMSO as a control) was added to each well of the plate and was allowed to stand at room temperature for 10 minutes. Thereafter, a biotin-labeled NAD solution (225 μM NAD, 25 μM 6-Biotin-17-NAD (Trevigen Inc.)) was added as a donor substrate and mixed with the resultant test target compound, and the reaction was allowed to proceed at 30° C. for 45 minutes. Instead of the biotin-labeled NAD solution, distilled water was added to blank wells. After the reaction, the plate was washed four times with the PBST buffer. Thereafter, HRP (horseradish peroxidase)-labeled streptavidin (Trevigen Inc.) diluted 1,000-fold with the PBS buffer was added to each well, and the reaction was allowed to proceed at room temperature for 20 minutes. After the plate was washed four times with the PBST buffer, a chemiluminescent substrate solution TACS-Sapphire (Trevigen Inc.) was added to each well and the reaction was allowed to proceed at room temperature for 20 minutes. Then, the chemiluminescence intensity was measured using a chemiluminescence measuring apparatus.
(§4) The residual enzyme activity in the presence of the test target compound was determined in accordance with the following formula. Based on the residual enzyme activity at multiple concentrations of the test target compound, an enzyme inhibition activity was calculated as a 50% inhibitory concentration (IC50 value) using data analysis software named Origin (LightStone Corp.).
On the technique in general: ELISA stands for enzyme-linked immunosorbent assay.

The next test concerns the target T2, tankyrase 1 (TNKS 1) (Homo sapiens, UniProt O95271).
T2 construct: 1,024-1,327aa; made in house; host or cells: cell-free protein synthesis system
Put plainly: Tankyrase inhibitory activity test (ELISA, self-polyADP ribosylation), tankyrase 1. Format: biochemical. The following applies: self-polyADP ribosylation. Here is the method: as §1, §2, §3, §4

[2] abbreviates: read-out: COLO-320 DM cell proliferation inhibitory activity (GI50 class).
Setting [3] is: tankyrase 2, ELISA, read-out: TNKS2 inhibitory activity (IC50 class).
[4] abbreviates: tankyrase 1, ELISA, read-out: TNKS1 inhibitory activity (IC50 class).
The mark [5] stands for this setting: class symbols, read-out: COLO-320 DM (cell proliferation inhibitory activity, GI50 value).
[6] abbreviates: ELISA, class symbols, read-out: TNKS2 (inhibitory activity against tankyrase 2, IC50 value).
Where [7] appears, read: ELISA, class symbols, read-out: TNKS1 (inhibitory activity against tankyrase 1, IC50 value).

T2 sequence (O95271 1024-1327): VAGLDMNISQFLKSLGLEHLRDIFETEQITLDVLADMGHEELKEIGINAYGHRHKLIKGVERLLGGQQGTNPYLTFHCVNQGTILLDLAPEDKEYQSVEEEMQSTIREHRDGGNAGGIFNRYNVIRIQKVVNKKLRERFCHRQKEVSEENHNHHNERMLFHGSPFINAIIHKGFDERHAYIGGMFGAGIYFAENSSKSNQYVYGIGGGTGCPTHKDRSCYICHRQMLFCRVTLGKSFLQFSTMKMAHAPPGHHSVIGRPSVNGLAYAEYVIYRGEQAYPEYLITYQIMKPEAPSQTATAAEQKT

As to `COCCOc1cc(F)c2c(c1)N(CCO)C(=O)C21CCN(c2nc3c(c(=O)[nH]2)CCCN3C)CC1` [Example 383, 4-fluoro-1-(2-hydroxy-ethyl)-6-(2-methoxyethoxy-1′-(8-methyl-4-oxo-3,4,5,6,7,8-hexahydropyrido [2,3-d]pyrimidin-2-yl))spiro [indoline-3,4′-piperidin]-2-one], in test [1] (setting [2]), the GI50 is 100 to 600 nM. Moreover, the IC50 on tankyrase 2 (TNKS 2) (setting [3]) and at tankyrase 1 (TNKS 1) (setting [4]) was less than 20 nM each time.
Consider `CN1CCCc2c1nc(N1CCC3(CC1)C(=O)N(C)c1c(OC4CC5CCC(C4)N5C)ccc(Cl)c13)[nH]c2=O` (stereo not drawn) [Example 425, 4-chloro-1′-(4-hydroxy-8-methyl-6,7-dihydro-5H-pyrido[2,3-d]pyrimidin-2-yl)-1-methyl-7-[(8-methyl-8-azabicyclo [3.2.1]octan-3-yl)oxy] spiro[indole-3,4′-piperidin]-2-one], for which, in test [1] (setting [5]), the GI50 was in the range of 100 to 600 nM. For the same molecule, the IC50 on tankyrase 2 (TNKS 2) (setting [6]) and at tankyrase 1 (TNKS 1) (setting [7]) was less than 20 nM in each case.
For the molecule `CN1CCCc2c1nc(N1CCC3(CC1)C(=O)N(C)c1cc(N4CCC(C(=O)O)CC4)cc(F)c13)[nH]c2=O` [Example 422, 1-[4-fluoro-1-methyl-1′-(8-methyl-4-oxo-3,4,5,6,7,8-hexahydro-pyrido[2,3-d]pyrimi-din-2-yl)-2-oxospiro [indoline-3,4′-piperidin]-6-yl]piperidine-4-carboxylic acid], in test [1] (setting [5]), the GI50 is less than 100 nM. Also, the IC50 at tankyrase 2 (TNKS 2) (setting [6]) and on tankyrase 1 (TNKS 1) (setting [7]) was less than 20 nM in each case.
As to `CN1CCCc2c1nc(N1CCC3(CC1)C(=O)N(C)c1c(OCC(=O)O)ccc(F)c13)[nH]c2=O` [Example 412, 2-[4-fluoro-1′-(4-hy-droxy-8-methyl-6,7-di-hydro-5H-pyrido[2,3-d]pyrimidin-2-yl)-1-meth-yl-2-oxospiro[indole-3,4′-piperidin]-7-yl] oxyacetic acid], the GI50 in test [1] (setting [5]) was in the range of 600 to 1000 nM. The IC50 at tankyrase 2 (TNKS 2) (setting [6]) and on tankyrase 1 (TNKS 1) (setting [7]) was less than 20 nM throughout.
Regarding `CN1CCCc2c1nc(N1CCC3(CC1)C(=O)N(C)c1cc(OCCNS(C)(=O)=O)cc(F)c13)[nH]c2=O` [Example 432, N-(2-{[4-fluoro-1-methyl-1′-(8-methyl-4-oxo-3,4,5,6,7,8-hexahy-dropyrido[2,3-d]py-rimidin-2-yl)-2-oxospiro [indoline-3,4′-piperi-din]-6-yl]oxy}ethyl) methanesulfonamide], in test [1] (setting [5]), the GI50 is 100 to 600 nM. For the same molecule, the IC50 on tankyrase 2 (TNKS 2) (setting [6]) and at tankyrase 1 (TNKS 1) (setting [7]) was 20 to 200 nM throughout.
Regarding `CN(C)C(=O)COc1cc(F)c2c(c1)C(=O)OC21CCN(c2nc3c(c(=O)[nH]2)CCCN3C)CC1` [Example 55, 2-{[7-fluoro-1′-(8-methyl-4-oxo-3,4,5,6,7,8-hexahydro-pyrido[2,3-d)pyrimidin-2-yl)-3-oxo-3H-spiro[isobenzo-furan-1,4′-piperidin)-5-yl)oxy}-N,N-dimethyl-acetamid], the GI50 in test [1] (setting [2]) was in the range of 600 to 1000 nM. Besides, the IC50 at tankyrase 2 (TNKS 2) (setting [3]) and on tankyrase 1 (TNKS 1) (setting [4]) was less than 20 nM throughout.
In the case of `O=c1[nH]c(N2CCC3(CC2)CN(Cc2cncnc2)c2cc(F)cc(F)c23)nc2c1CCCC2` [Example 252, 2-[4,6-difluoro-1-(pyrimidin-5-yl)methyl-spiro [indoline-3,4′-piperidin]-1′-yl]-5,6,7,8-tetrahydro-quinazolin-4(3H)-one], in test [1] (setting [2]), the GI50 is 100 to 600 nM. The IC50 on tankyrase 2 (TNKS 2) (setting [3]) and on tankyrase 1 (TNKS 1) (setting [4]) was less than 20 nM each time.
On to `O=c1[nH]c(N2CCC3(CC2)CN(Cc2cccnc2)c2cc(Cl)ccc23)nc2c1CCCC2` [Example 218, 2-(6-chloro-1-(pyridin-3-ylmethyl)spiro [indoline-3,4′-piperidin]-1′-yl)-5,6,7,8-tetrahydro-quinazolin-4(3H)-one], for which the GI50 in test [1] (setting [2]) lay in the range of 600 to 1000 nM. The IC50 at tankyrase 2 (TNKS 2) (setting [3]) is less than 20 nM; at tankyrase 1 (TNKS 1) (setting [4]), 20 to 200 nM.
Taken in the same sequence, the figures for `O=c1[nH]c(N2CCC3(CC2)CN(Cc2ccccn2)c2cc(F)cc(F)c23)nc2c1CCCC2` [Example 253, 2-[4,6-difluoro-1-(pyridin-2-yl)methyl-spiro [indoline-3,4′-piperidin]-1′-yl]-5,6,7,8-tetrahydro-quinazolin-4(3H)-one] were 100 to 600 nM, less than 20 nM and less than 20 nM.
As for `COCCN1C(=O)C2(CCN(c3nc4c(c(=O)[nH]3)CCCN4C)CC2)c2c(F)cc(OCc3nnn[nH]3)cc21` [Example 418, 4-fluoro-1-(2-methoxyethyl)-1′-(8-methyl-4-oxo-3,4,5,6,7,8-hexahydropyrido[2,3-d]pyrimidin-2-yl)-6-[(1H-tetrazole-5-yl)methoxy]spiro[indoline-3,4′-piperidine]-2(1H)-one], the GI50 in test [1] (setting [5]) lay in the range of 100 to 600 nM. Also, the IC50 on tankyrase 2 (TNKS 2) (setting [6]) and at tankyrase 1 (TNKS 1) (setting [7]) was less than 20 nM each time.
For `C[C@@H]1CN(c2cc(F)c3c(c2)N(C)C(=O)C32CCN(c3nc4c(c(=O)[nH]3)CCCN4C)CC2)C[C@H](C)O1` [Example 463, 6-[cis-2,6-dimethylmorpholin-4-yl]-4-fluoro-1′-(8-methyl-4-oxo-3,4,5,6,7,8-hexahydropyrido[2,3-d]pyrimidin-2-yl)-1-methyl-spiro[indole-3,4′-piperidine]-2(1H)-one], the GI50 in test [1] (setting [5]) is less than 100 nM. Besides, the IC50 at tankyrase 2 (TNKS 2) (setting [6]) and at tankyrase 1 (TNKS 1) (setting [7]) was less than 20 nM in each case.
As for `CC(=O)N1CCN(c2cc(F)c3c(c2)N(C)C(=O)C32CCN(c3nc4c(c(=O)[nH]3)CCCN4C)CC2)CC1` [Example 403, 6-(4-acetylpiperazin-1-yl)-4-fluoro-1-methyl-1′-(8-methyl-4-oxo-3,4,5,6,7,8-hexahydropy-rido[2,3-d]pyrimidin-2-yl)-spiro [indoline-3,4′-piperidin]-2(1H)-one], the GI50 in test [1] (setting [5]) was in the range of 100 to 600 nM. Also, the IC50 at tankyrase 2 (TNKS 2) (setting [6]) and on tankyrase 1 (TNKS 1) (setting [7]) was less than 20 nM each time.
`CN1CCCc2c1nc(N1CCC3(CC1)C(=O)N(CCO)c1cc(O)cc(F)c13)[nH]c2=O` [Example 384, 4-fluoro-6-hydroxy-1-(2-hydroxyethyl)-1′-(8-methyl-4-oxo-3,4,5,6,7,8-hexahydropyrido [2,3-d]pyrimidin-2-yl) spiro[indoline-3,4′-piperidin]-2-one]: in test [1] (setting [2]), the GI50 fell in the range of 100 to 600 nM. Further, the IC50 on tankyrase 2 (TNKS 2) (setting [3]) and at tankyrase 1 (TNKS 1) (setting [4]) was less than 20 nM each time.
For `Cc1cccc2c(=O)[nH]c(N3CCC4(CC3)CN(CCO)c3cc(F)cc(F)c34)nc12` [Example 258, 2-[4,6-di-fluoro-1-(2-hydroxy-ethyl)spiro-[indoline-3,4′-piperidin]-1′-yl]-8-methyl-quinazolin-4(3H)-one], the GI50 in test [1] (setting [2]) was 600 to 1000 nM. Besides, the IC50 at tankyrase 2 (TNKS 2) (setting [3]) and on tankyrase 1 (TNKS 1) (setting [4]) was less than 20 nM in each case.
